Results on 25 compounds are retold here after patent US11603373B2, “TDO2 and IDO1 inhibitors” (Genentech, Inc., priority 2017, dated 2023).

Test [1] has as its target T1, TDO2 (SW48 cells, high TDO expressing cells) (Homo sapiens, UniProt P48775).
T1 construct: SW48 cells (high TDO expressing cells); endogenous in cells; host or cells: SW48 cells
Kind of test: NFK GreenScreen cell assay, inhibition of TDO in SW48 cells. In kind it is cell-based. As to conditions: read-out: TDO2 Cell Fluor EC50. From the text: (§1) Cells are counted on a Vi-Cell (Beckman Coulter). […] The final DMSO concentration is 0.5%.

Test [2] deals with T2, IDO1 (A172+IFNg cells, high IDO expressing cells) (Homo sapiens, UniProt P14902).
T2 construct: A172+IFNg cells (high IDO expressing cells); endogenous in cells; host or cells: A172 cells induced with 100 ng/ml IFNγ
T2 sequence (P14902 whole entry): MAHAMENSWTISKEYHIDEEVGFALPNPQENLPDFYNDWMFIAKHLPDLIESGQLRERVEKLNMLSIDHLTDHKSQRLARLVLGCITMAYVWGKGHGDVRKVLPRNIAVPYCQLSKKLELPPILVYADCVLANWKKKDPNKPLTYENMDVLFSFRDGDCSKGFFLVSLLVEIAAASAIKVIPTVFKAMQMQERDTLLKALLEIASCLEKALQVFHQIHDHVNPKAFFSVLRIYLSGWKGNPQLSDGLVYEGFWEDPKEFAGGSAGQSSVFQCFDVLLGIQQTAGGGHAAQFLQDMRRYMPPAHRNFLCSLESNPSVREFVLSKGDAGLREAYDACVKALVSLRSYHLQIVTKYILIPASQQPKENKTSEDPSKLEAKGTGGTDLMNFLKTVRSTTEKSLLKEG
Kind of test: NFK GreenScreen cell assay, inhibition of IDO in A172+IFNg cells. The class given is cell-based. As to conditions: read-out: IDO cell Fluor EC50.
Text: as §1

T1 sequence (P48775 whole entry): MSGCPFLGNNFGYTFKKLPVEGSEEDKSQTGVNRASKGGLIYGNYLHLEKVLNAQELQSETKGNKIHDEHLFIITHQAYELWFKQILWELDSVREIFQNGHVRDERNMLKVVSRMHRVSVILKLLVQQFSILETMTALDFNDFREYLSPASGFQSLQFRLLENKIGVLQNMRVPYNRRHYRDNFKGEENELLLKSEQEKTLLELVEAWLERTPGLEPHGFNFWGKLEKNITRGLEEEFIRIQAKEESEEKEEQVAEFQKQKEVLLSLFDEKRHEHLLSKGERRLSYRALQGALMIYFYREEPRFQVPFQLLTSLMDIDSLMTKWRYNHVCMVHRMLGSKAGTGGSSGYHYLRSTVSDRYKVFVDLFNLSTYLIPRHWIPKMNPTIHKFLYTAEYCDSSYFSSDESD

As usually defined, the EC50 is the midpoint of the concentration-response curve. For the compound `CN1CC(C(=O)N2CCC3(CC2)CC(C2c4ccccc4-c4cncn42)C3O)CC1=O` (centres unmarked) [compound 53, 4-[3-hydroxy-2-(5H-imidazo[1,5-b]isoindol-5-yl)-7-azaspiro[3.5]nonane-7-carbonyl]-1-methyl-pyrrolidin-2-one], the figures for the concentration giving a half-maximal response (EC50) in test [1] and in test [2] were 9.9 µM and 6.7 µM, respectively.
Take `CC(C)(C)OC(=O)N1[C@@H]2CC[C@H]1C[C@@]1(C[C@H]([C@H]3c4ccccc4-c4cncn43)[C@@H]1O)C2` (single isomer, unassigned) [Example 12k]: the concentration giving a half-maximal response (EC50) amounted to 15 µM in test [1] and 13 µM in test [2].
In the case of `CC(C)(C)OC(=O)N1CC2CCC(C1)C21C[C@@H]([C@@H]2c3ccccc3-c3cncn32)[C@H]1O` (stereo partly drawn) [Example 22d, tert-butyl (2′R,3′S)-2′-hydroxy-3′-((R)-5H-imidazo[5,1-a]isoindol-5-yl)-3-azaspiro[bicyclo[3.2.1]octane-8,1′-cyclobutane]-3-carboxylate], the values for the concentration giving a half-maximal response (EC50) in test [1] and in test [2] were 0.44 µM and 1.4 µM, respectively.
Consider `CC(C)(C)OC(=O)N[C@H]1CC[C@@]2(CC1)C[C@@H]([C@H]1c3ccccc3-c3cncn31)[C@@H]2O` (single isomer, unassigned) [Example 24b], for which the concentration giving a half-maximal response (EC50) came out at 2.1 µM in test [1] and 1.3 µM in test [2].
On to `O=S(=O)(CF)N1CCC2(CC1)C[C@@H]([C@H]1c3ccccc3-c3cncn31)[C@H]2O` (single isomer, unassigned) [Example 8b], for which the values for the EC50 in test [1] and in test [2] were 0.12 µM and 0.048 µM, respectively.
Turning to `NS(=O)(=O)N1CCC2(CC[C@@H]([C@H]3c4ccccc4-c4cncn43)[C@H]2O)CC1` (single isomer, unassigned) [Example 4c], the 50% effective concentration (EC50) in test [1] amounted to 4.6 µM; in test [2], 6.2 µM.
Regarding `O=C(NCC(F)F)N1CCC2(CC1)C[C@@H]([C@H]1c3ccccc3-c3cncn31)[C@H]2O` [compound 58, N-(2,2-difluoroethyl)-3-hydroxy-2-(5H-imidazo[1,5-b]isoindol-5-yl)-7-azaspiro[3.5]nonane-7-carboxamide], the values for the EC50 in test [1] and in test [2] were 0.34 µM and 0.35 µM, respectively.
On to `O=C(C1CCOCC1)N1CCC2(CC1)C[C@@H]([C@H]1c3ccccc3-c3cncn31)[C@H]2O` [compound 45, [3-hydroxy-2-(5H-imidazo[1,5-b]isoindol-5-yl)-7-azaspiro[3.5]nonan-7-yl]-tetrahydropyran-4-yl-methanone], for which the half-maximal effective concentration (EC50) was found to be 2.1 µM in test [1] and 2.4 µM in test [2].
`NS(=O)(=O)N1CCC2(CC1)C[C@H]([C@H]1c3ccccc3-c3cncn31)[C@@H]2O` (single isomer, unassigned) [Example 11f]: the EC50 amounted to 0.182 µM in test [1] and 0.0585 µM in test [2].
For the compound `CC(C)(C)OC(=O)N1[C@@H]2CC[C@H]1C[C@@]1(C[C@H]([C@@H]3c4ccccc4-c4cncn43)[C@@H]1O)C2` (single isomer, unassigned) [Example 12i], the EC50 in test [1] is 13 µM; in test [2], 5.8 µM.
On to `CC(C)(C)OC(=O)N1CCC2(CC[C@H]([C@@H]3c4ccccc4-c4cncn43)[C@@H]2O)CC1` (single isomer, unassigned) [Example 2d], for which the EC50 is 3.7 µM in test [1] and 1.6 µM in test [2].
For `Cc1cc(CC(=O)N2CCC3(CC2)C[C@@H]([C@H]2c4ccccc4-c4cncn42)[C@H]3O)no1` [compound 54, 1-[3-hydroxy-2-(5H-imidazo[1,5-b]isoindol-5-yl)-7-azaspiro[3.5]nonan-7-yl]-2-(5-methylisoxazol-3-yl)ethanone], the EC50 in test [1] was found to be 0.37 µM; in test [2] it was 0.24 µM.
Regarding `CC(C)(C)OC(=O)N1CCC2(CC1)C[C@H](C1c3ccccc3-c3cncn31)[C@@H]2O` (single isomer, unassigned) [Example 1a], the EC50 in test [1] was 6.3 µM; in test [2], 4.3 µM.
For the compound `CC(C)(C)OC(=O)N[C@H]1CC[C@@]2(CC1)C[C@@H]([C@H]1c3ccccc3-c3cncn31)[C@@H]2O` (single isomer, unassigned) [Example 24j], the EC50 was 0.14 µM in test [1] and 0.64 µM in test [2].
The corresponding values for `O=S(=O)(C1COC1)N1CCC2(CC1)C[C@@H]([C@H]1c3ccccc3-c3cncn31)[C@H]2O` [Example 23c, (2S,3R)-2-[(5S)-5H-imidazo[1,5-b]isoindol-5-yl]-7-(oxetan-3-ylsulfonyl)-7-azaspiro[3.5]nonan-3-ol] are 0.09 µM and 0.05 µM.
Take `CC(C)(C)OC(=O)N1CC2(CC[C@@H]([C@@H]3c4ccccc4-c4cncn43)[C@H]2O)C1` (single isomer, unassigned) [Example 3g]: the EC50 in test [1] was 14 µM; in test [2] it was 8.2 µM.
For the compound `CC(C)(C)OC(=O)N1[C@@H]2CC[C@H]1C[C@@]1(C[C@@H]([C@H]3c4ccccc4-c4cncn43)[C@@H]1O)C2` (single isomer, unassigned) [Example 12h], the EC50 in test [1] was 13 µM; in test [2], 7 µM.
Turning to `CS(=O)(=O)N1CC2(CC(C3c4ccccc4-c4cncn43)C2O)C1` (centres unmarked) [compound 5, 6-(5H-imidazo[1,5-b]isoindol-5-yl)-2-methylsulfonyl-2-azaspiro[3.3]heptan-7-ol], the results for the EC50 in test [1] and in test [2] were 0.23 µM and 0.46 µM, respectively.
On to `N#CC1(C(=O)N2CCC3(CC2)C[C@@H]([C@H]2c4ccccc4-c4cncn42)[C@H]3O)CC1` [compound 61, 1-[3-hydroxy-2-(5H-imidazo[1,5-b]isoindol-5-yl)-7-azaspiro[3.5]nonan-7-carbonyl]cyclopropanecarbonitrile], for which the EC50 in test [1] was 0.47 µM; in test [2], 0.12 µM.
In the case of `CC(C)(C)OC(=O)N[C@H]1CC[C@]2(CC1)C[C@H]([C@H]1c3ccccc3-c3cncn31)[C@@H]2O` [Example 24g, tert-butyl ((1S,2R,4r,7S)-1-hydroxy-2-((S)-5H-imidazo[5,1-a]isoindol-5-yl)spiro[3.5]nonan-7-yl)carbamate], the half-maximal effective concentration (EC50) in test [1] worked out at 1.1 µM; in test [2], 1.8 µM.
The matching figures for `CC(C)(C)OC(=O)N[C@H]1CC[C@]2(CC1)C[C@H]([C@@H]1c3ccccc3-c3cncn31)[C@H]2O` (single isomer, unassigned) [Example 24c]: 0.73 µM and 5.2 µM.
The matching figures for `O=S(=O)(C1COC1)N1CCC2(CC1)C[C@H](C1c3ccccc3-c3cncn31)[C@@H]2O` (stereo in doubt) [Example 23b, (2R,3S)-2-((5S)5H-imidazo[1,5-b]isoindol-5-yl)-7-(oxetan-3-ylsulfonyl)-7-azaspiro[3.5]nonan-3-ol]: 3.2 µM and 2.5 µM.
`NS(=O)(=O)N1CCC2(CC[C@H]([C@@H]3c4ccccc4-c4cncn43)[C@@H]2O)CC1` (single isomer, unassigned) [Example 4d]: the EC50 in test [1] turned out to be 0.073 µM; in test [2] it was 0.11 µM.
Turning to `CC(C)(C)OC(=O)N[C@H]1CC[C@@]2(CC1)C[C@@H]([C@H]1c3ccccc3-c3cncn31)[C@H]2O` (single isomer, unassigned) [Example 24l], the EC50 in test [1] was 8.6 µM; in test [2], 1.9 µM.
The matching figures for `CC(C)(C)OC(=O)N1[C@@H]2CC[C@H]1C[C@]1(C[C@@H]([C@H]3c4ccccc4-c4cncn43)[C@H]1O)C2` (single isomer, unassigned) [Example 12j]: 0.74 µM and 0.12 µM.
